Active and inactive are the calls of the source. How the calls were made is not given here.
Test system: rodent carcinogenicity bioassays, tumor incidence
Assay: CCRIS carcinogenicity studies
Method in brief: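 Archive of carcinogenicity, mutagenicity, tumor promotion and tumor inhibition results drawn from journals, NCI reports and other sources, expert-reviewed; covers 1985-2011 and is no longer updated.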

Q: How did the carcinogen call (Species: MOUSE, Strain/Sex: B6C3F1/FEMALE, Route: ORAL, Dose: 0, 0.5, 1.0% OF DIET, Dose: 0, 0.5, 1.0% OF DIET, Tumor Site: Type of Lesion: LYMPHATIC SYSTEM: MALIGNANT LYMPHOMA, LIVER: HEPATOCELLULAR CARCINOMA) turn out when `Nc1ccc2c(c1)C(=O)c1ccccc1C2=O` was run?
A: The carcinogen call was “active; positive”.

Q: What about the carcinogen call (Species: MOUSE, Strain/Sex: B6C3F1/MALE, Route: ORAL, Dose: 0, 0.5, 1.0% OF DIET, Dose: 0, 0.5, 1.0% OF DIET, Tumor Site: Type of Lesion: LIVER: HEPATOCELLULAR CARCINOMA, ADENOMA) of the same compound?
A: Its carcinogen call is “active; positive”.

Q: And the carcinogen call (Species: RAT, Strain/Sex: F344/MALE, Route: ORAL, Dose: 0, 0.35, 0.69% OF DIET, Dose: 0, 0.35, 0.69% OF DIET, Tumor Site: Type of Lesion: LIVER: HEPATOCELLULAR CARCINOMA, NEOPLASTIC NODULE)?
A: Its carcinogen call is “active; positive”.

Q: Which carcinogen call (Species: RAT, Strain/Sex: FISCHER 344/MALE, FEMALE (50/GROUP), Route: DIET, Dose: 0, 2.5, 5% IN DIET FOR 104 WKS (STUDY DURATION: 104 WKS), Dose: 0, 2.5, 5% IN DIET FOR 104 WKS (STUDY DURATION: 104 WKS)) does the source give for `O=C[C@H](O)[C@@H](O)[C@H](O)CO` here?
A: Its carcinogen call is “inactive; negative”.

Q: Which results are given for `c1ccc2c(c1)ccc1nc3c(ccc4ccccc43)cc12`?
A: carcinogen call (Species: MOUSE, Route: DERMAL, Tumor Site: Type of Lesion: INTEGUMENTARY SYSTEM (SKIN)): active; positive; carcinogen call (Species: MOUSE, Route: SUBCUTANEOUS, Tumor Site: Type of Lesion: INJECTION SITE, LUNG): active; positive; carcinogen call (Species: RAT, Strain/Sex: OSBORNE-MENDEL/FEMALE, Route: LUNG IMPLANT, Dose: 0, 0.1, 0.3, 1.0 MG IN BEESWAX/TRICAPRYLIN (STUDY DURATION: LIFETIME), Dose: 0, 0.1, 0.3, 1.0 MG IN BEESWAX/TRICAPRYLIN (STUDY DURATION: LIFETIME), Tumor Site: Type of Lesion: LUNG: EPIDERMOID CARCINOMA): active; positive

Q: With `CC(C)(C)O` as the compound, how does the carcinogen call (Species: MOUSE, Strain/Sex: B6C3F1/FEMALE, Route: ORAL, Dose: 0, 5, 10, 20 MG/ML IN DRINKING WATER FOR 103 WK (STUDY DURATION: 103 WK), Dose: 0, 5, 10, 20 MG/ML IN DRINKING WATER FOR 103 WK (STUDY DURATION: 103 WK), Tumor Site: Type of Lesion: THYROID GLAND: FOLLICULAR CELL ADENOMA) read?
A: Its carcinogen call is “active; positive”.

Q: And the carcinogen call (Species: MOUSE, Strain/Sex: B6C3F1/MALE, Route: ORAL, Dose: 0, 5, 10, 20 MG/ML IN DRINKING WATER FOR 103 WK (STUDY DURATION: 103 WK), Dose: 0, 5, 10, 20 MG/ML IN DRINKING WATER FOR 103 WK (STUDY DURATION: 103 WK), Tumor Site: Type of Lesion: THYROID GLAND: FOLLICULAR CELL ADENOMA OR CARCINOMA)?
A: The carcinogen call was “equivocal”.

Q: And the carcinogen call (Species: RAT, Strain/Sex: F344/FEMALE, Route: ORAL, Dose: 0, 2.5, 5, 10 MG/ML IN DRINKING WATER FOR 103 WK (STUDY DURATION: 103 WK), Dose: 0, 2.5, 5, 10 MG/ML IN DRINKING WATER FOR 103 WK (STUDY DURATION: 103 WK))?
A: The carcinogen call was “inactive; negative”.

Q: What about the carcinogen call (Species: RAT, Strain/Sex: F344/MALE, Route: ORAL, Dose: 0, 1.25, 2.5, 5 MG/ML IN DRINKING WATER FOR 103 WK (STUDY DURATION: 103 WK), Dose: 0, 1.25, 2.5, 5 MG/ML IN DRINKING WATER FOR 103 WK (STUDY DURATION: 103 WK), Tumor Site: Type of Lesion: KIDNEY (RENAL TUBULE): ADENOMA OR CARCINOMA) of the same compound?
A: The carcinogen call was “active; positive”.

Q: Which carcinogen call (Species: MOUSE, Strain/Sex: B6C3F1/F, Route: GAVAGE, Dose: 0, 100, 200 MG/KG IN CORN OIL 5D/WK FOR 103 WK (STUDY DURATION: 106 WK), Dose: 0, 100, 200 MG/KG IN CORN OIL 5D/WK FOR 103 WK (STUDY DURATION: 106 WK)) does the source give for `OCc1ccccc1` here?
A: Its carcinogen call is “inactive; negative”.

Q: What about the carcinogen call (Species: MOUSE, Strain/Sex: B6C3F1/M, Route: GAVAGE, Dose: 0, 100, 200 MG/KG IN CORN OIL 5D/WK FOR 103 WK (STUDY DURATION: 106 WK), Dose: 0, 100, 200 MG/KG IN CORN OIL 5D/WK FOR 103 WK (STUDY DURATION: 106 WK)) of the same compound?
A: The carcinogen call was “inactive; negative”.

Q: And the carcinogen call (Species: RAT, Strain/Sex: F344/F, Route: GAVAGE, Dose: 0, 200, 400 MG/KG IN CORN OIL 5D/WK FOR 103 WK (STUDY DURATION: 105 WK), Dose: 0, 200, 400 MG/KG IN CORN OIL 5D/WK FOR 103 WK (STUDY DURATION: 105 WK))?
A: Its carcinogen call is “inactive; negative”.

Q: What about the carcinogen call (Species: RAT, Strain/Sex: F344/M, Route: GAVAGE, Dose: 0, 200, 400 MG/KG IN CORN OIL 5D/WK FOR 103 WK (STUDY DURATION: 105 WK), Dose: 0, 200, 400 MG/KG IN CORN OIL 5D/WK FOR 103 WK (STUDY DURATION: 105 WK)) of the same compound?
A: The carcinogen call was “inactive; negative”.

Q: `CC(C)C/C=N/N(C)C=O` was tested. Which carcinogen call (Species: MOUSE, Strain/Sex: SWISS/FEMALE, Route: GAVAGE, Dose: 0, 50 UG/G BW DISSOLVED IN PROPYLENE GLYCOL 1/WK FOR 2 WK (STUDY DURATION: LIFETIME), Tumor Site: Type of Lesion: THYROID: TUMOR, LUNG: TUMOR) did it give?
A: Its carcinogen call is “active; positive”.

Q: And the carcinogen call (Species: MOUSE, Strain/Sex: SWISS/FEMALE, Route: GAVAGE, Dose: 0, 50 UG/G BW DISSOLVED IN PROPYLENE GLYCOL 1/WK FOR 53 WK (STUDY DURATION: LIFETIME), Tumor Site: Type of Lesion: LUNG: TUMOR, LIVER: TUMOR, GALLBLADDER: TUMOR, Tumor Site: Type of Lesion: LUNG: TUMOR, LIVER: TUMOR, GALLBLADDER: TUMOR)?
A: Its carcinogen call is “active; positive”.

Q: And the carcinogen call (Species: MOUSE, Strain/Sex: SWISS/MALE, Route: GAVAGE, Dose: 0, 50 UG/G BW DISSOLVED IN PROPYLENE GLYCOL 1/WK FOR 2 WK (STUDY DURATION: LIFETIME), Tumor Site: Type of Lesion: LUNG: TUMOR, THYROID: TUMOR)?
A: The carcinogen call was “active; positive”.

Q: And the carcinogen call (Species: MOUSE, Strain/Sex: SWISS/MALE, Route: GAVAGE, Dose: 0, 50 UG/G BW DISSOLVED IN PROPYLENE GLYCOL 1/WK FOR 53 WK (STUDY DURATION: LIFETIME), Tumor Site: Type of Lesion: LUNG: TUMOR, LIVER: TUMOR, GALLBLADDER: TUMOR, PREPUTIAL GLAND: TUMOR, Tumor Site: Type of Lesion: LUNG: TUMOR, LIVER: TUMOR, GALLBLADDER: TUMOR, PREPUTIAL GLAND: TUMOR)?
A: Its carcinogen call is “active; positive”.

Q: How did the carcinogen call (Species: MOUSE, Strain/Sex: SWISS/FEMALE, Route: DERMAL, Dose: 0, 41 UG IN ACETONE (0.2%) 2/WK FOR 65 WK FOR A TOTAL DOSE OF 0, 5.3 MG (STUDY DURATION: 80 WK), Dose: 0, 41 UG IN ACETONE (0.2%) 2/WK FOR 65 WK FOR A TOTAL DOSE OF 0, 5.3 MG (STUDY DURATION: 80 WK), Tumor Site: Type of Lesion: SKIN: CARCINOMA, SKIN: PAPILLOMA) turn out when `Cc1c2c(c(C)c3c1ccc1ccccc13)CCCC2` was run?
A: The carcinogen call was “active; positive”.

Q: `CC1CN(N=O)CCC1=O` (stereo unspecified) was tested. Which carcinogen call (Species: RAT, Strain/Sex: F344/FEMALE, Route: ORAL, Dose: 0, 80 ML OF SOLUTION OF 126 MG/L IN NEUTRAL DEIONIZED DRINKING WATER 5 D/WK FOR 26 WK (STUDY DURATION: 40 WK), Tumor Site: Type of Lesion: NASAL CAVITY: SQUAMOUS CELL CARCINOMA, TONGUE: TUMOR, FORESTOMACH: TUMOR, ESOPHAGUS: TUMOR, TRACHEA: TUMOR, Tumor Site: Type of Lesion: NASAL CAVITY: SQUAMOUS CELL CARCINOMA, TONGUE: TUMOR, FORESTOMACH: TUMOR, ESOPHAGUS: TUMOR, TRACHEA: TUMOR) did it give?
A: The carcinogen call was “active; positive”.

Source: PubChem BioAssay AID1259411 (Chemical Carcinogenesis Research Information System (CCRIS), 2018)
